Data set [1] in a line: Serum vitamin B12 levels after inhalation of aerosolized sample (Example 7). The class given is in vivo. Conditions: 75 minutes after initial inhalation. The protocol:
An electronic inhaler device powered by a 4.2V, 320 mAh lithium-ion battery was used to aerosolize a sample containing vitamin B12 in organic vegetable glycerin and 1,3-propanediol and the aerosolized sample was inhaled by test subjects. The sample was heated to between 75 to 260° C. with a 3 ohm heating element in about 2 to about 3 second intervals with about 5 to about 10 second rest periods for a total of […]. The mixture contained 60% glycerin and 40% 1,3-propanediol to which 2 mg/ml vitamin B12 was added. Serum vitamin B12 levels were measured in the test subjects before inhalation of the aerosolized sample and 75 minutes after initial inhalation of the aerosolized sample. Before inhalation, serum B12 levels averaged 403.0 pg/ml.

The conditions of data set [2]: healthy individuals, cited from earlier work.

Here are results for 1 substance from patent US20200108009A1, “BIOAVAILABLE AEROSOLIZED SUPPLEMENT FORMULATIONS AND METHODS THEREOF” (Inhale Health LLC, priority 2017, published 2020).

For cobalamin [vitamin B12], in data set [1], the “increase of serum B12 compared to levels before inhalation” value is recorded as 5.4%. Besides, the “serum B12 levels after inhalation (average)” value in data set [1] (2 mg/ml vitamin B12, before inhalation 403.0 pg/ml) stood at 424.7 pg/mL. Also, the “fraction of oral supplement absorbed” value in data set [2] (500 mcg oral supplement) was 2%. Further, in data set [2] (of a 500 mcg oral supplement), the “amount of oral supplement absorbed” value was “about 10 mcg”.
